Data: PMC10213809 (Cell Reports Medicine, 2023)
Entries after “also recorded” stand apart in the source; their conditions may differ.

Assays:
[1] = test system: arboviruses (CHIKV, WNV, ZIKV); assay: qRT-PCR of viral genome replication in drug-treated fibroblasts at 48 hpi; assay type: cell-based
[2] = test system: TBK-IRF3 signaling cascade; assay type: cell-based, human; settings: HFF-1, pretreatment, uninfected cells
[3] = test system: ZIKV; assay type: cell-based, Zika virus; settings: HFF-1; for infectivity against ZIKV at the highest non-toxic dose: 100 μg/mL
[4] = test system: CHIKV; assay type: cell-based, Chikungunya virus; settings: for inhibition of CHIKV, primary screen: HFF-1
[5] = test system: CHIKV; assay: Viral-mediated cytopathic effect / cell death in infected HFF-1 cells; assay type: cell-based, Chikungunya virus; settings: HFF-1, 48 hpi, effective concentration
[6] = test system: WNV; assay type: cell-based, West Nile virus; settings: for infectivity against WNV at the highest non-toxic dose: 100 μg/mL; for infectivity against WNV at the highest non-toxic dose / inhibition of WNV, primary screen: HFF-1; for antiviral activity (inhibition) against WNV, primary screen: HFF-1, moderate antiviral activity
[7] = test system: RSV; assay type: cell-based, respiratory syncytial virus
[8] = test system: CHIKV; assay type: cell-based, Chikungunya virus
[9] = test system: WNV; assay type: cell-based, West Nile virus
[10] = test system: HFF-1 cells; assay: Intracellular ATP level; assay type: cell-based, human; settings: CHIKV-infected HFF-1, 48 hpi
[11] = test system: CHIKV (strain 181/25); assay: CHIKV arthritis mouse model
[12] = test system: CHIKV (strain 181/25); assay: Histopathology and IHC of CHIKV-infected mouse footpad; assay type: in vivo
[13] = test system: CHIKV; assay: RNA sequencing of drug-treated CHIKV-infected HFF-1 cells; assay type: cell-based, Chikungunya virus; settings: for viral genome reads of the total reads: RNA sequencing
[14] = test system: HFF-1 cells; assay: NAD/NADH-Glo assay, intracellular NADH; assay type: cell-based, human; settings: HFF-1, 48 hpi
[15] = test system: CHIKV; assay type: cell-based, Chikungunya virus; settings: read-out: IC50, antiviral activity against CHIKV; human fibroblasts (HFF-1), eight-dose response
[16] = test system: STING-IRF3 and STING-NF-κB pathways; assay type: cell-based, human; settings: HFF-1, 2 h post-stimulation
[17] = test system: CHIKV; assay type: cell-based, Chikungunya virus; remark: listed apart in the source

Molecule: Nc1nc2c(ncn2[C@@H]2O[C@@H]3COP(=O)(O)O[C@H]4[C@@H](O)[C@H](n5cnc6c(N)ncnc65)O[C@@H]4COP(=O)(O)O[C@@H]2[C@@H]3O)c(=O)[nH]1 [2'3'-cGAMP, 2′,3′-cGAMP]
- viral genome replication (qRT-PCR) [1]: significantly reduced
- phosphorylation of IRF3 (western blot) [2]: induced phosphorylation of IRF3
- infectivity against ZIKV at the highest non-toxic dose [3]: below-detectable infectivity
- infectivity against CHIKV at the highest non-toxic dose [4]: below-detectable infectivity
- viral-mediated cytopathic effect (CPE) [5]: prevented CPE
- infectivity against WNV at the highest non-toxic dose [6]: below-detectable infectivity

Molecule: Nc1nc2c(ncn2[C@@H]2O[C@@H]3COP(=O)(O)O[C@H]4[C@@H](O)[C@H](n5cnc6c(N)ncnc65)O[C@@H]4COP(=O)(O)O[C@H]3[C@H]2O)c(=O)[nH]1 [3'3'-cGAMP, 3′,3′-cGAMP]
- phosphorylation of IRF3 (western blot) [2]: induced phosphorylation of IRF3
- infectivity against ZIKV at the highest non-toxic dose [3]: below-detectable infectivity
- infectivity against CHIKV at the highest non-toxic dose [4]: below-detectable infectivity
- viral-mediated cytopathic effect (CPE) [5]: prevented CPE
- infectivity against WNV at the highest non-toxic dose [6]: below-detectable infectivity

Molecule: O=c1cnn([C@@H]2O[C@H](CO)[C@@H](O)[C@H]2O)c(=O)[nH]1 [6-azauridine, 6-Azauridine]
- inhibition of RSV infection [7]: efficient inhibition

Molecule: CCCCCCCCCCCCCCCC(=O)OCC(CSC[C@H](N)C(=O)N[C@@H](CO)C(=O)N[C@@H](CCCCN)C(=O)N[C@@H](CCCCN)C(=O)N[C@@H](CCCCN)C(=O)N[C@@H](CCCCN)C(=O)Nc1ccc(Cn2c(O)nc3c(N)nc(NCCCC)nc32)cc1)OC(=O)CCCCCCCCCCCCCCC (some centres unmarked) [Adilipoline(CL413)]
- effect on viral replication, primary screen (Figure 1C) [4]: enhanced viral replication

Molecule: CC(C)Cn1cnc2c(N)nc3ccccc3c21 [Imiquimod]
- viral genome replication (qRT-PCR) [1]: significantly reduced
- inhibition of ZIKV, primary screen [3]: potent inhibition
- inhibition of CHIKV, primary screen [4]: not against CHIKV
- inhibition of WNV, primary screen [6]: potent inhibition
- antiviral activity (inhibition) against WNV, primary screen [6]: > 50%

Molecule: CC(=O)N[C@@H]1[C@@H](O[C@H](C)C(=O)N[C@@H](C)C(=O)N[C@H](CCC(=O)O)C(N)=O)[C@H](O)[C@@H](CO)O[C@H]1O [MDP]
- inhibition of ZIKV, primary screen [3]: potent inhibition
- inhibition of CHIKV, primary screen [4]: not against CHIKV
- inhibition of WNV, primary screen [6]: potent inhibition

Molecule: CCC(CC)COC(=O)[C@H](C)N[P@](=O)(OC[C@H]1O[C@@](C#N)(c2ccc3c(N)ncnn23)[C@H](O)[C@@H]1O)Oc1ccccc1 [Remdesivir]
- antiviral activity against CHIKV [8]: no effective antiviral activity; also recorded: not active
- antiviral activity against WNV [9]: no effective antiviral activity; also recorded: not active
- inhibition of RSV infection [7]: efficient inhibition

Molecule: Nc1ncnc2c1ncn2[C@@H]1O[C@@H]2COP(=O)(O)O[C@H]3[C@@H](O)[C@H](n4cnc5c(N)ncnc54)O[C@@H]3COP(=O)(O)O[C@H]2[C@H]1O [c-di-AMP]
- antiviral activity (inhibition) against WNV, primary screen [6]: > 50%

Molecule: Nc1nc2c(ncn2[C@@H]2O[C@@H]3COP(=O)(O)O[C@H]4[C@@H](O)[C@H](n5cnc6c(=O)[nH]c(N)nc65)O[C@@H]4COP(=O)(O)O[C@H]3[C@H]2O)c(=O)[nH]1 [c-di-GMP]
- inhibition of ZIKV, primary screen [3]: potent inhibition
- effect on viral replication, primary screen (Figure 1C) [4]: enhanced viral replication
- inhibition of CHIKV, primary screen [4]: not against CHIKV
- inhibition of WNV, primary screen [6]: potent inhibition

Molecule: Nc1ncnc2c1ncn2[C@@H]1O[C@@H]2COP(=O)(O)O[C@H]3[C@@H](O)[C@H](n4cnc5c(=O)[nH]cnc54)O[C@@H]3COP(=O)(O)O[C@H]2[C@H]1O [cAIMP]
- viral genome replication (qRT-PCR) [1]: significantly reduced
- intracellular ATP [10]: prevented ATP depletion
- phosphorylation of IRF3 (western blot) [2]: induced phosphorylation of IRF3
- volume of footpad swelling, chronic long-term follow-up ([11]; 14-month-old mice, cAIMP pretreatment, up to 2 months post-infection): significantly reduced
- virus replication, chronic long-term follow-up ([11]; 14-month-old mice, cAIMP pretreatment, up to 2 months post-infection (59 dpi)): significantly reduced
- inflammatory gene expression, therapeutic ([11]; mouse, cAIMP 10 mg/kg i.p. at 6 or 12 hpi, left footpad): reducing
- viral replication, therapeutic ([11]; mouse, cAIMP 10 mg/kg i.p. single dose at 6 or 12 hpi): reducing
- footpad swelling, therapeutic ([11]; mouse, cAIMP 10 mg/kg i.p. single dose at 6 or 12 hpi, up to 21 dpi): protected the animals from significant footpad swelling
- CHIKV-mediated footpad swelling, prophylactic ([11]; mouse, cAIMP 10 mg/kg i.p. single dose at day -1, observed 7 days): significantly prevented
- body weight changes ([11]; mouse, cAIMP at 6 or 12 h post-CHIKV infection): No significant body weight changes
- reduction in viral genome replication in left-rear footpad (qRT-PCR) ([11]; mouse, cAIMP pretreatment 10 mg/kg i.p., day 3): 2 log
- expression of inflammatory genes Ccl2, Il-6 and Il-10 in left footpad ([11]; mouse, cAIMP-pretreated, 7 dpi): significant downregulation
- infectivity against ZIKV at the highest non-toxic dose [3]: below-detectable infectivity
- antiviral activity, post-treatment of CHIKV-infected cells [4]: potent antiviral activity
- infectivity against CHIKV at the highest non-toxic dose [4]: below-detectable infectivity
- inflammatory cellular infiltration, therapeutic ([12]; cAIMP 10 mg/kg i.p. at 6 or 12 hpi, left footpad): reducing
- pathological changes and left-rear footpad swelling (histopathology) ([12]; cAIMP pretreatment, 7 dpi): prevented
- viral-mediated cytopathic effect (CPE) [5]: prevented CPE
- infectivity against WNV at the highest non-toxic dose [6]: below-detectable infectivity
- HEATR9 expression induced by CHIKV ([13]; CHIKV-infected HFF-1): reversed the induction
- reduction of viral gene expression compared with untreated infected cells ([13]; CHIKV-infected HFF-1, 24 hpi): about 880 fold
- viral genome reads of the total reads ([13]; CHIKV-infected HFF-1, 24 hpi): 0.1%
- nicotinamide adenine dinucleotide (NADH) levels [14]: increased

Molecule: CCn1nc(C)cc1C(=O)Nc1nc2cc(C(N)=O)cc(OC)c2n1C/C=C/Cn1c(NC(=O)c2cc(C)nn2CC)nc2cc(C(N)=O)cc(OCCCN3CCOCC3)c21 [diABZI]
- viral genome replication (qRT-PCR) [1]: significantly reduced
- phosphorylation of IRF3 (western blot) [2]: induced phosphorylation of IRF3
- IC50 [15]: 10.1 nM
- antiviral activity, post-treatment of CHIKV-infected cells [4]: potent antiviral activity
- viral-mediated cytopathic effect (CPE) [5]: prevented CPE

Molecule: Scleroglucan
- viral genome replication (qRT-PCR) [1]: significantly reduced
- phosphorylation of IRF3 (western blot) [2]: only the basal level
- phosphorylation of IRF3 (Ser386) [16]: only a few cells have a cytoplasmic form of phospho-IRF3
- phosphorylation of STING (Ser366) [16]: did not have detectable levels
- viral-mediated cytopathic effect (CPE) [5]: prevented CPE
- antiviral activity (inhibition) against WNV, primary screen [6]: > 50%
- viral genome reads of the total reads ([13]; CHIKV-infected HFF-1, 24 hpi): 63%
- CHIKV productive infection / replication in PSC-CMs [17]: inhibited; also recorded: moderately reducing
